Measurements taken from patent US20250002450A1, “CATIONIC STEROID COMPOUNDS, METHOD OF OBTAINING THEREOF, FORMULATIONS COMPRISING THEREOF AND THEIR USES” (UNIVERSIDADE DO PORTO, priority 2021, published 2025).

Legend:
[1] = system: P. aeruginosa ATCC 27853; test: Bacterial biofilm formation inhibition (crystal violet); format: cell-based, Pseudomonas aeruginosa; conditions: 2×MIC and MIC, 24 h
Description: In an embodiment, the antibiofilm activity of compound 1 was performed as follows. Given its bactericidal effect, the impact of compound 1 on the biofilm formation of reference strains was studied.
The effect of compound 1 on bacterial biofilm formation was evaluated through quantification of total biomass, using the crystal violet method, as previously described ([FIG. 6]). […] A control with an appropriate concentration of DMSO, as well as a negative control (TSB alone) was included. Sterile 96-well flat-bottomed untreated polystyrene microtiter plates were used. After a 24 h incubation at 37 degrees C., the biofilms were heat-fixed for 1 h at 60 degrees C. and stained with 0.5% (v/v) crystal violet (Quimica Clinica Aplicada, Amposta, Spain) for 5 min. The stain was resolubilized with 33% (v/v) acetic acid (Acetic acid 100%, AppliChem, Darmstadt, Germany) and the biofilm biomass was quantified by measuring the absorbance of each sample at 570 nm in a microplate reader (Thermo Scientific Multiskan® EX, Thermo Fisher Scientific, Waltham, MA, USA). The background absorbance (TSB or TSB+1% glucose without inoculum) was subtracted from the absorbance of each sample and the data are presented as a percentage of control. Three independent assays were performed for reference strains, with triplicates for each experimental condition.

[2] = system: S. aureus 66/1 (MRSA); test: Kirby-Bauer disk diffusion; format: cell-based, Staphylococcus aureus; conditions: 15 μg per disk
Description: An initial screening of the antibacterial activity of the compounds was performed by the Kirby-Bauer disk diffusion method, as recommended by the Clinical and Laboratory Standards Institute (CLSI). Briefly, sterile 6 mm blank paper disks (Oxoid, Basingstoke, England) impregnated with 15 μg of each compound were placed on inoculated MH agar plates. A blank disk with dimethylsulfoxide (DMSO) was used as a negative control. MH inoculated plates were incubated for 18-20 h at 37 degrees C. At the end of incubation, the inhibition halos where measured. The MIC was used to determine the antibacterial activity of each compound, in accordance with the recommendations of the CLSI. Two-fold serial dilutions of the compounds were prepared in Mueller-Hinton Broth 2 (MHB2—Sigma-Aldrich, St. Louis, MO, USA) within the concentration range of 0.062-64 μg/mL. CTX ranging between 0.031-16 μg/mL was used as a control. Sterility and growth controls were included in each assay. Purity checks and colony counts of the inoculum suspensions were also performed in order to ensure that the final inoculum density closely approximates the intended number (5×10^5 CFU/mL). The MIC was determined as the lowest concentration of compound that inhibited growth of the bacteria. The MBC was assessed by spreading 10 μL of culture collected from wells showing no visible growth on MH agar plates. […]

C[C@H](CCC(=O)NCCN)[C@H]1CC[C@H]2[C@@H]3CC[C@@H]4C[C@H](O)CC[C@]4(C)[C@H]3C[C@H](O)[C@]12C [Compound 1, (R)—N-(2-aminoethyl)-4-((3R,5R,8R,9S,10S,12S,13R,14S,17R)-3,12-dihydroxy-10,13-dimethylhexadecahydro-1H-cyclopenta[a]phenanthren-17-yl) pentanamida]
biofilm formation (in words) [1]: significantly inhibited | Disk diffusion [2]: 11 mm
